“And” between values parts separate entries of the source, which are not always exact repeats. Equal entries are not always repeated.
System: 327498-153-R-J2-PDC multicell spheroid viability
Experiment: Anticancer human tumor 327498-153-R-J2-PDC patient-derived uterine carcinosarcoma cell line growth inhibition [IpAb]
Conditions: for viability, T/C: stronger effect = lower value; active = viability on the fitted dose curve at most 10% of control; inactive = the rest
Text: Combinatorial screen of targeted agents with ipatasertib and abemaciclib in multi-cell type tumor spheroids
A high-throughput screen of multi-cell type tumor spheroids was designed to identify active combinations of targeted small molecules and ipatasertib or abemaciclib. Complex spheroids include a stromal component modeled by human endothelial cells (HUVEC) and fibroblasts modeled by human mesenchymal stem cells (MSCs). The concentration ranges selected for each drug and investigational agent were based upon clinically achievable concentrations if the clinical Cmax of the agent was known.
Compounds. The drugs and investigational agents: ipatasertib (NSC767898), abemaciclib(NSC768073), selumetinib (NSC741078), trametinib (758246), adavosertib (NSC754352), everolimus (NSC733504), sapanisertib (NSC764658), vemurafenib (NSC761431), venetoclax (NSC766270), copanlisib (NSC809693), apelisib (NSC765974), palbociblib (NSC758247), vemurafenib (NSC761431), dabrafenib (NSC764134), ravoxertinib (NSC781343), BMS-387032 (NSC767048), sotorasib (NSC818433), talazoparib (NSC767125) and afursertib (NSC778305), were obtained from the National Cancer Institute (NCI) Developmental Therapeutics Program Chemical Repository. The FDA-approved anticancer drug set is available from the NCI Developmental Therapeutics Program. […] The stock solutions were prepared in dimethyl sulfoxide (DMSO, Sigma-Aldrich, St. Louis, MO, cat. D2650) at 800-fold the tested concentration and stored at -70 degrees C prior to their use. All drugs and investigational agents were tested over a range starting from a high concentration at or near the clinical Cmax and decreasing in half-log increments. If the clinical Cmax for an agent had not been determined, the highest concentration tested was 10 microM.
NCI60 Cell Culture. NCI60 cell lines were obtained from the NCI Developmental Therapeutics Program Tumor Repository. For each lot of cells, the Repository performed Applied Biosystems AmpFLSTR Identifiler testing with PCR amplification to confirm consistency with the published Identifier STR profile for each cell line. Cells were kept in continuous culture for no more than 20 passages. The optimal seeding densities for each of the cell lines at each time point assessed were determined prior to performing the concentration response studies. Briefly, the NCI60 human tumor lines were grown as monolayers in RPMI 1640 medium supplemented with 10% FBS and 2 mmol/L L-glutamine.
An additional 9 lines were from the NCI60 cell line panel including MDA-MB-231 breast carcinoma, MDA-MB-468 breast carcinoma, MCF7 breast carcinoma, Hs578T breast carcinoma, MALME-3M melanoma, SK-MEL-2 melanoma, SK-OV-3 ovarian carcinoma, DU-145 prostate carcinoma, PC-3 prostate carcinoma, all cell lines along with major genetic alterations are listed on Table 2. Pooled donor human umbilical vein endothelial cells (HUVEC, Lonza, cat. CC-2519) and human mesenchymal stem cells (hMSC, Lonza, cat. PT-2501) were purchased from Lonza (Walkersville, MD).
PDMR cell lines were grown in complete medium (DC medium): Dulbecco's modified Eagle's medium (DMEM)/F12 supplemented with 5% fetal bovine serum (FBS), 2 mM L-glutamine, 100 U/mL penicillin and 100 µg/ml streptomycin, 0.4 µg/ml hydrocortisone, 10 ng/ml epidermal growth factor (EGF) recombinant human protein, 24 µg/mL adenine, and 0.1 mg/mL primocin. During culture from frozen stock vials, PDMR cells were cultured in the same medium containing 10 µM Y-27632 (see Table 3). The PDCs were cultured in complete DMEM/F12 media without 10 microM Y-27632 dihydrochloride for at least two passages prior to the screen. The pooled donor HUVEC and hMSC were cultured in endothelial cell growth medium 2 (PromoCell, Heidelberg, Germany, cat. C-22011) and mesenchymal stem cell growth medium 2 (PromoCell, cat. C-28009), respectively. For all experiments, HUVEC and hMSC were used at passages </=5.
[…]
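Also: spheroids exposed to agents for 7 days.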

Cc1nc(NC(=O)N2CCCC2C(N)=O)sc1-c1ccnc(C(C)(C)C(F)(F)F)c1 (stereo not given)
> 10 µM: IC50 (curve of compound)
inactive: viability, T/C (compound 0.0316 µM) 97.9% and 110% | viability, T/C (compound 0.1 µM) 95.7% and 102% | viability, T/C (compound 0.316 µM) 90% and 98.9% | viability, T/C (compound 1 µM) 77% and 89.3% | viability, T/C (compound 3.16 µM) 76.2% and 80.2% | viability, T/C (compound 10 µM) 63% and 60.7%

Cn1cnc2c(F)c(Nc3ccc(Br)cc3Cl)c(C(=O)NOCCO)cc21
inactive: viability, T/C (compound 0.00949 µM) 94% and 97.4% | viability, T/C (compound 0.03 µM) 86.6% and 73.7% | viability, T/C (compound 0.0949 µM) 85.2% and 77.9% | viability, T/C (compound 0.3 µM) 64.3% and 67.1% | viability, T/C (compound 0.949 µM) 69.9% and 51.7% | viability, T/C (compound 3 µM) 49.4% and 36.6%
> 3 µM and 1.07 µM: IC50 (curve of compound)

Cn1ncc(Cl)c1-c1cc(C(=O)NC(CN)Cc2cccc(F)c2)sc1Cl (stereo not given)
active: viability, T/C (compound 10 µM) 0.31% and 0.21%
1.48 µM and 1.1 µM: IC50 (curve of compound)
inactive: viability, T/C (compound 0.0316 µM) 98.6% and 91.8% | viability, T/C (compound 0.1 µM) 85.3% and 76% | viability, T/C (compound 0.316 µM) 74.4% and 67.2% | viability, T/C (compound 1 µM) 53.1% and 49% | viability, T/C (compound 3.16 µM) 42.2% and 36.7%

Cn1nccc1Nc1nccc(-c2ccn(C(CO)c3ccc(Cl)c(F)c3)c(=O)c2)n1 (stereo not given)
5.45 µM and 3.93 µM: IC50 (curve of compound)
inactive: viability, T/C (compound 0.0316 µM) 99.2% and 102% | viability, T/C (compound 0.1 µM) 97.9% and 90.4% | viability, T/C (compound 0.316 µM) 98.9% and 92% | viability, T/C (compound 1 µM) 83.2% and 93.5% | viability, T/C (compound 3.16 µM) 64.7% and 54.9% | viability, T/C (compound 10 µM) 34.4% and 29.1%

Cn1ncnc1[C@H]1c2n[nH]c(=O)c3cc(F)cc(c23)N[C@@H]1c1ccc(F)cc1
inactive: viability, T/C (compound 0.000316 µM) 109% and 99% | viability, T/C (compound 0.001 µM) 106% and 99.6% | viability, T/C (compound 0.00316 µM) 99.2% and 92.1% | viability, T/C (compound 0.01 µM) 74.8% and 65.7% | viability, T/C (compound 0.0316 µM) 47.8% and 39% | viability, T/C (compound 0.1 µM) 26.5% and 21.4%
0.028 µM and 0.0196 µM: IC50 (curve of compound)

Cn1cnc2c(F)c(Nc3ccc(Br)cc3Cl)c(C(=O)NOCCO)cc21 + CC(C)NCC(C(=O)N1CCN(c2ncnc3c2C(C)CC3O)CC1)c1ccc(Cl)cc1
0.427 µM: IC50 (curve of first compound, second compound 0.1 µM)
0.0612 µM: IC50 (curve of first compound, second compound 0.316 µM)
inactive: viability, T/C (second compound 0.1 µM, first compound 0.00949 µM) 91.7% | viability, T/C (second compound 0.1 µM, first compound 0.03 µM) 69.9% | viability, T/C (second compound 0.1 µM, first compound 0.0949 µM) 66.2% | viability, T/C (second compound 0.1 µM, first compound 0.3 µM) 51.7% | viability, T/C (second compound 0.1 µM, first compound 0.949 µM) 46.1% | viability, T/C (second compound 0.1 µM, first compound 3 µM) 34.1% | viability, T/C (second compound 0.316 µM, first compound 0.00949 µM) 60.2% | viability, T/C (second compound 0.316 µM, first compound 0.03 µM) 51.6% | viability, T/C (second compound 0.316 µM, first compound 0.0949 µM) 48% | viability, T/C (second compound 0.316 µM, first compound 0.3 µM) 41.9% | viability, T/C (second compound 0.316 µM, first compound 0.949 µM) 29.7% | viability, T/C (second compound 0.316 µM, first compound 3 µM) 20.6% | viability, T/C (second compound 1 µM, first compound 0.00949 µM) 41.9% | viability, T/C (second compound 1 µM, first compound 0.03 µM) 34.6% | viability, T/C (second compound 1 µM, first compound 0.0949 µM) 32.9% | viability, T/C (second compound 1 µM, first compound 0.3 µM) 28.9% | viability, T/C (second compound 1 µM, first compound 0.949 µM) 20.4% | viability, T/C (second compound 1 µM, first compound 3 µM) 11.5% | viability, T/C (second compound 3.16 µM, first compound 0.00949 µM) 33.8% | viability, T/C (second compound 3.16 µM, first compound 0.03 µM) 27.2% | viability, T/C (second compound 3.16 µM, first compound 0.0949 µM) 21% | viability, T/C (second compound 3.16 µM, first compound 0.3 µM) 21% | viability, T/C (second compound 3.16 µM, first compound 0.949 µM) 13.3% | viability, T/C (second compound 10 µM, first compound 0.00949 µM) 27.1% | viability, T/C (second compound 10 µM, first compound 0.03 µM) 22.4% | viability, T/C (second compound 10 µM, first compound 0.0949 µM) 16.3% | viability, T/C (second compound 10 µM, first compound 0.3 µM) 15.7% | viability, T/C (second compound 10 µM, first compound 0.949 µM) 12.2%
< 0.00949 µM: IC50 (curve of first compound, second compound 1 µM) | IC50 (curve of first compound, second compound 3.16 µM) | IC50 (curve of first compound, second compound 10 µM)
active: viability, T/C (second compound 3.16 µM, first compound 3 µM) 7.22% | viability, T/C (second compound 10 µM, first compound 3 µM) 6.89%
